Source: ChEMBL document CHEMBL1126995, “Nonpeptide -turn mimetics of enkephalin” (1993)

Assays:
Mus musculus = species: Mus musculus; assay: Tested for the analgesic activity in mouse writhing assay; type: functional
[1] = molecular target: Mu-type opioid receptor (Rattus norvegicus) (UniProt P33535); assay: Binding affinity against mu opioid receptors from rat brain (minus cerebellum) using [3H]DAMGO (2.0 nM) at 10 uM; type: tissue-based
[2] = molecular target: Delta-type opioid receptor (Rattus norvegicus) (UniProt P33533); assay: Binding affinity against Opioid receptor delta 1 from rat brain using (1.0 nM [3H]DTLET or 1.0 nM [3H]-DSLET) at 6 uM
Chain of Delta-type opioid receptor (Rattus norvegicus) (P33533 whole entry): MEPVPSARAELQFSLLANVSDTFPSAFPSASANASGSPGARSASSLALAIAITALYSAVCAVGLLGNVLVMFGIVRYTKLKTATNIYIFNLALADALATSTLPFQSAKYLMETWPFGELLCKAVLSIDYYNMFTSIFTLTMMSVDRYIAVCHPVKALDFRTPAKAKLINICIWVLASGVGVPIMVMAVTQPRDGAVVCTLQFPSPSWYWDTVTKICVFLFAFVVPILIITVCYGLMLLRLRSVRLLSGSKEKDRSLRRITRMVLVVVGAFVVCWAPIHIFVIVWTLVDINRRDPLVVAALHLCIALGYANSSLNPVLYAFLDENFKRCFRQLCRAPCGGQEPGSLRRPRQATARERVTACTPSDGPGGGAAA

Chain of Mu-type opioid receptor (Rattus norvegicus) (P33535 whole entry): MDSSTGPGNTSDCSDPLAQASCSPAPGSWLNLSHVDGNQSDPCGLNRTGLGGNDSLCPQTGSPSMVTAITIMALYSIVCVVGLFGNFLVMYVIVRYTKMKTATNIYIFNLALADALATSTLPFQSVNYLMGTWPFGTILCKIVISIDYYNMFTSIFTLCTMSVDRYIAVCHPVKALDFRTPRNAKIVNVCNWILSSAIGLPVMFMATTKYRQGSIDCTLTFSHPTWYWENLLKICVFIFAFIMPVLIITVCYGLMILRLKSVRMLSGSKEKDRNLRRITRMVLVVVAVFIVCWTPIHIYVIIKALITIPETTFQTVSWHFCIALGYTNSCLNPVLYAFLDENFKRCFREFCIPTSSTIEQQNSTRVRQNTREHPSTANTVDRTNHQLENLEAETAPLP

Displacement [1]: 53% | Displacement [2]: 50%
Structure (SMILES): COC(=O)C[C@@H]1CC[C@H](Cc2ccccc2)NC(=O)CCC(CNC(=O)[C@@H](N)Cc2ccc(O)cc2)C(=O)N1 (stereo partly drawn)
ED50 (Mus musculus): <10 µg/mL
